Results reported in patent publication US8343475B2, “Small cationic antimicrobial peptides” (priority 2006, dated 2013).
In brackets after ≈: the same amount, converted by molar mass. Residues, ends and D or L forms follow the SMILES beside them.

Assays:
[1] = tested on: MCP-1 release by human PBMC; assay: Chemokine induction in PBMC (capture ELISA); type: cell-based; details: for Chemokine induction MCP-1: background (204) subtracted
Outline: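 Heparinized blood from healthy volunteers; Ficoll-isolated human PBMC (7.5×10^5) treated with peptides at 20 or 100 μg/ml for 24 hours at 37° C, 5% CO2. Cell-free supernatants assayed for MCP-1 by capture ELISA.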

S. aureus = assay: Mouse model of aggressive bacterial infection (intraperitoneal); type: in vivo; details: 1.6×10^10 CFU S. aureus IP; 8 mg/kg peptide IP four hours post infection
Method: FIG. 10. Ability of new antimicrobial peptides HHC-10 and HHC-36 to protect mice against Staph aureus infections. Bacterial loads in the peritoneal lavage from individual mice after 24 hours of infection are shown (solid circles). Dead animals were assigned the highest colony forming unit (CFU) count obtained in the experiment. The solid line represents the arithmetic mean for each group.
FIG. 18. […] Mice were treated with 1.6×10^10 CFU of S. aureus intraperitoneally. Four hours post infection they received a dose of 8 mg/kg peptide IP. The infection was allowed to progress for 4 or 24 hours after which mice were euthanaised and plate counts of staphylococci surviving in the peritoneum were determined. Bacterial loads in the peritoneal lavage from individual mice after 24 hours of infection are shown (solid circles). The solid line represents the arithmetic mean for each group.
FIG. 19. […] Mice were treated with 1.6×10^10 CFU of S. aureus intraperitoneally. Four hours post infection they received a dose of 8 mg/kg peptide IP. The infection was allowed to progress for 4 or 24 hours after which mice were euthanaised and plate counts of staphylococci surviving in the peritoneum were determined. Bacterial loads in the peritoneal lavage from individual mice after 24 hours of infection are shown (solid circles). The solid line represents the arithmetic mean for each group.
To further confirm this, a mouse model of aggressive bacterial infection, widely used to assess antibiotic efficacy, was utilized. Mice were treated with 1.6×10^10 CFU IP. Four hours post infection they received a dose of 4 mg/kg peptide IP. The infection was allowed to progress for 20 more hours, for a total infection time of 24 hours.
These immunomodulatory activities led to protection against infections by S. aureus. Briefly a mouse model of aggressive bacterial infection, widely used to assess antibiotic efficacy, was utilized. […] The infection was allowed to progress for 4 or 24 hours after which mice were euthanaised and plate counts of staphylococci surviving in the peritoneum were determined.

[2] = tested on: CXCL1 (Gro-α) release by human PBMC; assay: Chemokine induction in PBMC (capture ELISA); type: cell-based; details: background (196) subtracted
Outline: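 Human PBMC from healthy donors' heparinised blood (Ficoll), 7.5×10^5 cells treated with 20 or 100 μg/ml peptide for 24 h at 37° C, 5% CO2. Cell-free supernatants assayed for CXCL1 by capture ELISA.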

[3] = tested on: MCP-3 release by human PBMC; assay: Chemokine induction in PBMC (capture ELISA); type: cell-based; details: background (6) subtracted
Outline: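 Human PBMC from healthy donors (Ficoll-isolated), 7.5×10^5 cells at 0.75–1×10^6 cells/ml, treated with peptides at 20 or 100 μg/ml for 24 h at 37° C, 5% CO2. MCP-3 in cell-free supernatants measured by capture ELISA.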

[4] = tested on: IL8 release by human PBMC; assay: Chemokine induction in PBMC (capture ELISA); type: cell-based; details: 20 or 100 μg/ml peptide, 24 hours (FIG. 14)
Method: FIG. 14. Induction of IL8 release by 7.5×10^5 human PBMC in response to treatment with 20 or 100 μg/ml of different peptides for 24 hours.
Venous blood (20 ml) from healthy volunteers was collected in Vacutainer® collection tubes containing sodium heparin as an anticoagulant (Becton Dickinson, Mississauga, ON) in accordance with UBC ethical approval and guidelines. Blood was diluted 1:1 with complete RPMI 1640 medium and separated by centrifugation over a Ficoll-Paque® Plus (Amersham Biosciences, Piscataway, N.J., USA) density gradient. White blood cells were isolated from the buffy coat, washed twice in RPMI 1640 complete medium, and the number of peripheral blood mononuclear cells (PBMC) was determined by trypan blue exclusion. PBMC (5×10^5) were seeded into 12-well tissue culture dishes (Falcon; Becton Dickinson) at 0.75 to 1×10^6 cells/ml at 37° C. in 5% CO2. The above conditions were chosen to mimic conditions for circulating blood monocytes entering tissues at the site of infection via extravasation.
Following incubation of the cells under various treatment regimens, the tissue culture supernatants were centrifuged at 1000×g for 5 min, then at 10,000×g for 2 min to obtain cell-free samples. Supernatants were aliquoted and then stored at −20° C. prior to assay for various chemokines by capture ELISA (eBioscience and BioSource International Inc., CA, USA respectively)

[5] = tested on: Enterococcus faecalis ATCC29212; type: cell-based; details: ATCC29212
Outline: (§1)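 MIC by modified broth microdilution in Mueller Hinton medium. Peptides were diluted in 0.01% acetic acid with 0.2% BSA and added at 10× to inoculum of 2-7×10^5 CFU/ml, then incubated overnight at 37 °C. MIC is the lowest concentration with no visible growth.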

[6] = tested on: Staphylococcus aureus ATCC25923; type: cell-based; details: ATCC25923
Outline: as §1

[7] = tested on: wild-type Salmonella enterica ssp. typhimurium; type: cell-based
Outline: as §1

SMILES: CC[C@H](C)[C@H](N)C(=O)N[C@@H](Cc1c[nH]c2ccccc12)C(=O)N[C@H](C(=O)N[C@H](C(=O)N[C@@H](Cc1c[nH]c2ccccc12)C(=O)N[C@@H](CCCNC(=N)N)C(=O)N[C@@H](CCCNC(=N)N)C(N)=O)[C@@H](C)CC)C(C)C [HH18, IWVIWRR-NH2] (H-IWVIWRR-NH2; N-terminus assumed)
- Chemokine induction MCP-1 ([1]; 20 μg/ml peptide): 1111 pg/mL
- Chemokine induction MCP-1 ([1]; 100 μg/ml peptide): 9608 pg/mL
- induction of MCP1 ([1]; 20 or 100 μg/ml peptide, 24 hours (FIG. 15)): induced
- protection of mice from S. aureus infections (bacterial loads in peritoneal lavage) (S. aureus): Protection of mice from S. aureus infections
- Chemokine induction Gro-α ([2]; 20 μg/ml peptide): 865 pg/mL
- Chemokine induction Gro-α ([2]; 100 μg/ml peptide): 2964 pg/mL
- Chemokine induction MCP-3 ([3]; 20 μg/ml peptide): 32 pg/mL
- Chemokine induction MCP-3 ([3]; 100 μg/ml peptide): 431 pg/mL
- induction of IL8 [4]: strongest abilities to induce this chemokine
- MIC E. faecalis [5]: 25 µg/mL (≈ 24.3 µM)
- MIC S. aureus [6]: 25 µg/mL (≈ 24.3 µM)
- MIC S. typhi [7]: 12.5 µg/mL (≈ 12.2 µM)
